In series [1] the test system is PDE4 (human promonocytic U937 cells). Nature of the series: PDE4 inhibition, Phosphodiesterase [3H] cAMP SPA enzyme assay with U937 extract. It counts as biochemical. To be noted: 1 μM [3H] cAMP. From the text:
A test compound may be screened for activity against 11 of the major classes of mammalian cyclic nucleotide phosphodiesterase (termed PDE 1 through 11). These PDE's may use cAMP or cGMP or both cyclic nucleotides as substrates. […] PDE's for some of the various assays may be fully or partially purified from the following cells/tissues: PDE 1 (bovine heart), PDE 2 (human platelets), PDE 3 (human platelets), PDE4 (human promonocytic U937 cells) and PDE 5 (human platelets).
In the following descriptions, amounts are exemplary, and may be varied. […] Sonicated cell extracts are then centrifuged at 70,000 g for 30 minutes and supernatants removed. Sucrose is added to a final concentration of 0.25 M, then the extracts are aliquoted and stored at −80° C.
Briefly, the assay is run for 60 minutes at room temperature in 50 μL volumes in 1 μM [^3H] cAMP, 50 mM Tris Cl, 10 mM MgCl2 pH 7.5. U937 extract is added such that less than 10% of substrate was consumed. Test compound or vehicle is added to the desired concentration. […] Reactions are performed in duplicate. Reactions are terminated with 50 μl of Yttrium SPA beads and then counted on a Packard Scintillation counter (TopCount™) for 1 minute.

Series [2] concerns HARBS site of PDE4. Nature of the series: Displacement of [3H]-ROLIPRAM from the high affinity binding site (HARBS) in mouse brain membranes. Conditions: for Ratio (PDE4/HARBS): ratio of PDE4 catalytic IC50 to HARBS IC50. How it is done: (§1) In order to perform this assay, female CD1 mice are sacrificed via the intraperitoneal injection of 100 μL ethanol, and the brain tissue is homogenized in 5 mL of ice-cold Tris-HCl, pH 8.00 supplemented with 1.2 mM MgCl2, 1 mM benzamidine (Sigma; Catalogue No. B 6506) and 0.1 mM PMSF (Sigma; Catalogue No. P 7626). The suspension is centrifuged twice at 30,000×G at 4° C. and then the supernatant discarded. The pellet is resuspended in buffer, and adjusted to a protein concentration of 0.5 mg/mL. Compounds to be tested are dissolved in DMSO and pipetted in triplicate into a 96 well microplate at concentrations ranging from 1 to 30,000 nM. […] The plate is incubated at 4° C. for 1 hour. Contents of the plate are aspirated through a Whatman GF/C filterplate, and rinsed with 4×200 μL ice-cold buffer. The plate is dried overnight, and then 30 μL of Microscint 20 (Packard; Catalogue No. 6013621) is added to each well, and plate is read in the scintillation counter with a sampling time of 2 minutes/well. […] Triplicate determinations should be performed at each concentration.

Series [3] has as its target T1, HARBS site of PDE4.
T1 construct: HARBS IC50; other: mouse brain membranes, [3H]-ROLIPRAM displacement; other: mouse brain; other: relative to ROLIPRAM (25, 26) or
Described as above. Conditions: for IC50: mouse brain membranes, [3H]-ROLIPRAM displacement. How it is done: as §1

The test system of the next series is ferret model of emesis. Nature of the series: Emetic threshold after intravenous infusion in the ferret model of emesis. It counts as in vivo, ferret (Mustela putorius furo). Conditions: for Emetic Threshold: 5 minute intravenous infusion, 3 hour observation. An excerpt: The most recognized pre-clinical animal model for emesis is the ferret. The ferret undergoes a very characteristic, reproducible and well-documented series of behavioral responses, including backward walking, pawing of the mouth, arching of the back, retching and vomiting when dosed with an emetogenic compound. With respect to PDE4 inhibitors their emetogenic potential has been correlated with the ability of compounds to bind to a conformer of the enzyme to which ROLIPRAM™ binds with nanomolar affinity (the HARBS binding site). The central nervous system (CNS) and emetic effects of PDE4 inhibitors are therefore thought in large part to be due to the interaction of these compounds with this particular conformer of PDE4 which is especially prevalent in both the central and peripheral nervous system as well as in cells of the lumen of the gastrointestinal tract (i.e., parietal cells of the stomach).
Adult male ferrets (Mustela putorius furo, sable, 0.75-1.5 kg, Marshall Farms, USA) were quarantined and acclimated to the testing facility for seven days prior to initiation of the study. For intravenous infusion dosing, a catheter was surgically inserted in the jugular vein a minimum of 14 hours prior to administration of test articles and the catheter was maintained for patency by flushing with heparin solution daily. After surgery for catheter insertion the ferrets were individually housed in cages. Animals were fasted 12-16 hours prior to dosing and during the behavioral assessment period. They were returned to normal food diet after the observation periods. Animals found acceptable for inclusion in the study were randomly assigned to the each of the study groups (n=3 for each of the two treatment groups and n=3 for the vehicle negative control group).
Test compounds (ROLIPRAM™ and Compound 25) were freshly dissolved on the day of dosing in the vehicle, polyethylene glycol (PEG) 200 (Sigma catalogue number P-3015), to the required concentration in order to achieve the target dose. Animals in the control (PEG 200) and treatment (ROLIPRAM™ or Compound 25) groups were administered the dosing formulation at 3 ml/kg by intravenous infusion over a 5 minute period via the catheter inserted in the jugular. Continual observation for signs of emetic behavior were begun for each of the animals in the study groups immediately following completion of the 5 minute dosing period and for a period of three hours. Sequential recordings of emetic behaviour were noted on a separate data collection sheet for each animal which included the time of onset of each event as well as the duration and nature of the event (i.e., retching, gagging, vomiting, back arching, backward walking etc.).
The target doses for each of the test articles are shown below in Table 3. If animals expressed no emetic behaviour at the lowest dosage then animals were dosed again with semi-log increasing doses of test article and the three hour observation period repeated until the emetic threshold (lowest of test doses causing emesis) was reached or until the highest of the 4 target doses was completed. There was a 24 hr. washout period between each of the successive ascending doses of test article to allow the compound to clear the animals' system. […] If the emetic response was minimal at a particular dose level then the next dose level could be performed to confirm the threshold level.

A word on the IC50: it is the point on the concentration scale where inhibition reaches its midpoint. `COc1cc(CC2C(=O)NCC2c2ccc(OC)c(OC3CCCC3)c2)ccc1O` (centres unmarked) [Compound 26] displayed an IC50 in series [1] of 1490 nM.
With `COc1ccc([C@]2(C#N)CC[C@@H](C(=O)O)CC2)cc1OC1CCCC1` [ARIFLO ™, reference compound], the IC50 turned out to be 180 nM in series [1] and 76 nM at HARBS site of PDE4 [3]. Besides, in the series on HARBS site of PDE4 [2], the “Ratio (PDE4/HARBS)” value stood at 2.4.
`COc1cc(CC2C(=O)NCC2c2ccc(OC)c(OC3CCCC3)c2)ccc1OCc1ccccc1` (centres unmarked) [Compound 25]: the values for the IC50 (in series [1]; on HARBS site of PDE4 [3]) were 400 nM and 361 nM, respectively. Also, the “Ratio (PDE4/HARBS)” value in the series with HARBS site of PDE4 [2] is on record as 1.1. The “reduction of HARBS binding affinity relative to parent non-benzylated compound” value in the series with HARBS site of PDE4 [3] (relative to ROLIPRAM (25, 26) or ARIFLO (41)) was found to be 56 fold. Besides, the “Emetic Threshold” value in the series with ferret model of emesis (ferrets) was >3.0 mg/kg; in the series on ferret model of emesis (ferrets, listed as compound 25), “greater than 3 mg/kg”. Also, the “higher doses required to achieve emesis compared to rolipram” value with ferret model of emesis (ferrets, i.v. infusion) is “at least 10 fold”. For the same molecule, in the series on ferret model of emesis (up to and including highest dose level tested (3 mg/kg) i.v. infusion), the emetic behaviour result is reported as “no emetic behaviour whatsoever”.
On to `COc1ccc(C2CNC(=O)C2)cc1OC1CCCC1` (centres unmarked) [ROLIPRAM ™, reference compound], for which the “greater affinity to high affinity site than the concentration required for half-maximal inhibition of PDE4 catalytic activity” value in the series on HARBS site of PDE4 [2] is 65 fold. For the same molecule, the emetic signs result in the series with ferret model of emesis (0.1 mg/kg i.v. infusion) is on record as “Emetic signs were also evident”. Moreover, the “ferrets exhibiting a definite emetic response” value in the series with ferret model of emesis (0.3 mg/kg i.v. infusion, n=3) is “one of the three ferrets”. The mild retches observed in the series with ferret model of emesis (0.3 mg/kg i.v., in one ferret, over 9 minutes starting at 10 minutes post-dosing) came out at 5. Besides, in the series with ferret model of emesis (ferrets), the “Emetic Threshold” value was found to be 0.3 mg/kg.

Source of the values: patent US7459479B2, “Benzylated PDE4 inhibitors” (Biolipox AB, priority 2000, dated 2008).
